Results reported in patent US4303637A, “Medication indicated for ocular hypertension” (priority 1980, dated 1981).

Tests used:
[1] = Solubility in distilled water; assay type: physicochemical; settings: distilled water at 25° C
Text: (§1) The product is removed from the internal mixer and passed through the cooled rolls of a 3×8 inch roller mill to form a 0.8 mm thick film, with portions of the film compression molded between heated plattens of a hydraulic press to form 0.4 mm thick film. The film is cooled, and elliptical ocular shaped devices are punched from the dry film.

[2] = Osmotic pressure of the solute (vapor pressure osmometer); assay type: physicochemical
Text: The osmotic pressure, ATM, of the solute can be measured in a commercially available osmometer that measures the vapor pressure difference between pure water and a solution containing a solute to be analyzed, and according to standard thermodynamic principles, the vapor pressure ratio is converted into an osmotic pressure. An osmometer that can be used for the present measurements is the Model 302B, Vapor Pressure Osmometer, manufactured by the Hewlett Packark Company, Avondale, Pennsylvania.
as §1

[3] = tested on: intraocular pressure associated with glaucoma; settings: liquid eyedrops; cited from earlier work

Structure (SMILES) | solubility [1] | osmotic pressure [2] | lowering of intraocular pressure [3]
COCCc1ccc(OCC(O)CNC(C)C)cc1.O=C(O)C(O)C(O)C(=O)O (racemic) [(±)-1-[4-(2-methoxyethyl)-phenoxy]-3-[(1-methylethyl)amino]-2-propanol tartrate] | 860 mg/mL | 210 atm | 
CC(C)(C)NC[C@H](O)COc1nsnc1N1CCOCC1 [timolol] |  |  | lowering intraocular pressure associated with glaucoma
